According to PMC8196835, “Antibacterial Properties of Small-Size Peptide Derived from Penetratin against Oral Streptococci” (Materials, 2021):
≈ marks a conversion by molar mass, not a printed value. Residues, ends and D or L forms follow the SMILES beside them.

Assays:
mammalian cells = settings: cited from earlier work
Source text: Antibiotics are used excessively and inappropriately in clinic. As a result, it directly leads to the weakening of the effect of antibiotics and the emergence of drug-resistant pathogens. Among new biomedical alternatives, antimicrobial peptides (AMPs) and cell-penetrating peptides (CPPs) are considered promising candidates. CPPs are a new carrier that can pass through the cell membrane without cell surface receptor recognition and can deliver therapeutic drugs to the cell membrane. One of the most well-known examples of CPPs is penetratin (RQIKIWFQNRRMKWK ...

tested bacteria = settings: cited from earlier work
Source text: To overcome the drawbacks of using cationic peptides as a new generation of antibiotics, researchers began to synthesize new short peptides by reducing the residue of the peptide chain for use as candidate drugs in clinical trials. […] Therefore, we aimed to figure out the antibacterial activity of RR9 on initial oral colonizers, specifically S. oralis, S. gordonii, and S. sanguinis ... || Antibiotics are used excessively and inappropriately in clinic. As a result, it directly leads to the weakening of the effect of antibiotics and the emergence of drug-resistant pathogens. Among new biomedical alternatives, antimicrobial peptides (AMPs) and cell-penetrating peptides (CPPs) are considered promising candidates. CPPs are a new carrier that can pass through the cell membrane without cell surface receptor recognition and can deliver therapeutic drugs to the cell membrane. One of the most well-known examples of CPPs is penetratin (RQIKIWFQNRRMKWK ...

[1] = tested on: S. sanguinis (ATCC No 10556); format: cell-based, Streptococci sanguinis; settings: ATCC No 10556, 24 h
Protocol: (§1) The bacterial strains S. oralis (ATCC No 9811), S. sanguinis (ATCC No 10556), and S. gordonii (ATCC No 10558) were purchased from the ATCC (American Type Culture Collection, Manassas, VA, USA). The cultivation method was the same as that described in a previous article.
(§2) The bacterial growth inhibiting ability of the peptide was determined using a broth microdilution-based method with modifications. […] The start inoculum was 5 × 10^7 CFU mL^−1, and the MIC was denoted as the lowest concentration of peptides where bacterial growth was stopped. After bacteria were treated with RR9 for 24 h, 20 uL was removed from each sample and spread on a brain heart infusion (BHI) agar plate. The CFU on plates were counted after incubation at 37 °C for 5 days. The MBC is the concentration of RR9 where over 99.9% of the cells were inhibited.

[2] = tested on: S. gordonii (ATCC No 10558); format: cell-based, Streptococci gordonii; settings: ATCC No 10558, 24 h
Protocol: as §1, §2

[3] = tested on: streptococci biofilm (S. oralis, S. gordonii, S. sanguinis); format: cell-based; settings: RR9 25 μg mL^−1, 24 h at 37 °C, preformed 24 h biofilm, AO/EB
Protocol: Each bacteria suspension (300 μL) was mixed with BHI broth (900 μL) and then cultured for 24 h in a 24-well microtiter plate for biofilm formation. After the removal of the medium and unattached bacterial cells, RR9 (25 μg mL^−1) with saliva or serum was added, and the resulting samples were cultured for another 24 h at 37 °C. After the staining of the attached bacteria using an acridine orange/ethidium bromide (AO/EB) solution (Solarbio, Beijing, China), CLSM (Leica SP8, Oskar-Barnack-Strae Germany) was used to count the number of observed bacterial cells. For each biofilm strain, three representative areas per lens were scanned in at least three separate experiments. The images were captured using MetaMorph software (Universal Imaging, West Chester, PA, USA).

[4] = tested on: human gingival fibroblasts (HGFs); format: cell-based; settings: RR9 25 μg mL^−1, 1–4 days, CCK-8 OD 450 and AO/EB CLSM
Protocol: HGFs were purchased from Procell Life Science & Technology (Wuhan, China). Cells from passages 4 to 6 were used. The cultivation method was described previously.
The HGFs (2 × 10^3 cells per well) were cultured in DMEM supplemented with 10% FBS in a humidified incubator (37 °C, 5% CO2 atmosphere) for 24 h. Pretreatment of the cells was conducted by incubating with 25 μg mL^−1 RR9 for 1, 2, 3, and 4 days. Untreated cells were used as a negative control. The samples were characterized using the Cell Counting Kit-8 (Dojindo Laboratories, Kumamoto, Japan) by measuring their absorbance at 450 nm using a microplate reader (BioTek Synergy HT, Vermont, USA). After staining using AO/EB live/dead dye, the viability of seeded cells on the sterile coverslips was determined using CLSM. Each sample consisted of five wells.

S. oralis (ATCC No 9811) = format: cell-based, Streptococci oralis; settings: ATCC No 9811, 24 h
Protocol: as §1, §2

sspA gene of S. gordonii = assay: RT-PCR of sspA gene expression; format: cell-based; settings: RR9 25 μg mL^−1 (MIC), 24 h, p < 0.05
Protocol: Trizol reagent was employed to extract the total RNA of S. gordonii cells, following the manufacturer’s instructions. The first strand of cDNA was synthesized by the retrotranscription of 2 μL of RNA (Invitrogen, TRIzol Max Bacterial RNA Isolation Kit). The cDNA was amplified to a final volume of 20 μL by 45 cycles in a DNA thermal circulatory apparatus. Pre-denaturation was carried out at 95 °C for 15 s, and the reaction was performed at 95 °C for 10 s, 60 °C for 20 s, and 72 °C for 30 s. The primer sequences of the differentiation markers are shown in Table A1 in Appendix B. After amplification, GAPDH was defined as the internal reference gene, and the sample of the control group was set as the standard to obtain the CT value of each target gene for each sample. The data were analyzed using the relative quantification of ΔCT. The relative quantitative (RQ) values of all target genes were obtained according to the formula RQ = 2^−ΔΔCT.

[5] = tested on: streptococci biofilms and cell membranes; assay: SEM and TEM observation of bacterial morphology; format: cell-based, S. oralis, S. gordonii, S. sanguinis; settings: RR9 25 μg mL^−1, 24 h (SEM), 12 h (TEM)
Source text: The morphology of the formed biofilm was observed using scanning electron microscopy (SEM, SUPRA 55VP, Germany) following previously published procedures. Additionally, the transmission electron microscopy (TEM, JEM-2100F; JEOL Ltd., Tokyo, Japan)-based technique was employed for the structural analysis of RR9 cells according to the previously reported method. For more details, please check Appendix A.
A sterile coverslip was placed in a 24-well plate and was as described above. The coverslips with biofilms were fixed with 2.5% (v/v) glutaraldehyde, and the samples were dehydrated with increasing concentrations of ethanol for 15 min each. Prior to field-emission SEM, the samples were subjected to gold sputtering.
After incubation with RR9 (25 μg mL^−1) or without the peptide (control group) for 12 h at 37 °C in an anaerobic chamber (N2: 80%; H2: 10%; CO2: 10%), super-thin slice samples were prepared for TEM using a previously reported method. The cells were fixed with 2.5% glutaraldehyde at 4 °C for 4 h and, then, dyed with 2% uranyl acetate and 0.2% citrate before being observed under electron.

[6] = tested on: planktonic oral streptococci (S. oralis, S. sanguinis, S. gordonii); assay: Time-kill assay; format: cell-based
Protocol: To evaluate the effect of RR9 on planktonic oral streptococci, the time-killing assay was used. First, 200 μL of RR9 solution and 800 μL of BHI broth were mixed with 1 mL of bacterial culture (5 × 10^7 CFU mL^−1), yielding 2 mL of the final volume with 100%, 200%, or 400% of the MBC final peptide concentrations. After 0, 0.25, 0.5, 1, 2, 4, 24, and 48 h of incubation at 37 °C, 10 μL of each suspension was pipetted, serially diluted 10 times, and finally transferred to a BHI agar plate for CFU determination. The time–kill kinetic curves were obtained by recording log(CFU mL^−1) as a function of incubation time […].

[7] = tested on: streptococci biofilm (S. oralis, S. gordonii, S. sanguinis); assay: Biofilm susceptibility, crystal violet; format: cell-based; settings: RR9 25 μg mL^−1 (MIC), 24 h, n = 3, p < 0.05
Protocol: The antibacterial agents were evaluated by the microdilution method to study their impact on biofilm formation. In our study, streptococci (5 × 10^7 CFU mL^−1) mixed with RR9 were cultured for 24 h. The formed biofilm was fixed using methanol (95%) and stained using 0.5% (w/v) crystal violet, and the final OD at 600 nm was measured.

| Molecule | cytotoxicity toward mammalian cells (mammalian cells) | bactericidal effect on the tested bacteria (tested bacteria) | MBC [1] [µg/mL] | MIC [1] [µg/mL] | MBC [2] [µg/mL] | MIC [2] [µg/mL] | anti-biofilm effect of RR9 with saliva or serum compared with RR9 alone (CLSM live/dead) [3] | cytotoxicity toward HGFs [4] | MBC (S. oralis (ATCC No 9811)) [µg/mL] | MIC (S. oralis (ATCC No 9811)) [µg/mL] | expression of the sspA gene versus control (sspA gene of S. gordonii) | bacterial morphology and membrane integrity (SEM, TEM) [5] | time to complete bacterial death ([6]; 100%, 200% or 400% of the MBC, 37 °C, all tested strains) [h] | duration of the antimicrobial effect ([6]; time-kill over 48 h) [h] | antimicrobial effect against selected bacteria (tested bacteria) | biofilm formation, OD at 600 nm versus control [7] |
| --- | --- | --- | --- | --- | --- | --- | --- | --- | --- | --- | --- | --- | --- | --- | --- | --- |
| RQIKIWFQNRRMKWKK-NH2 [penetratin, well-known cell-penetrating peptide, …-NH2] | without any cytotoxicity | strong bactericidal effect |  |  |  |  |  |  |  |  |  |  |  |  |  |  |
| CC[C@H](C)[C@H](NC(=O)[C@H](CCC(N)=O)NC(=O)[C@@H](N)CCCNC(=N)N)C(=O)N[C@@H](CCCNC(=N)N)C(=O)N[C@@H](CCCNC(=N)N)C(=O)N[C@@H](Cc1c[nH]c2ccccc12)C(=O)N[C@@H](Cc1c[nH]c2ccccc12)C(=O)N[C@@H](CCC(N)=O)C(=O)N[C@@H](CCCNC(=N)N)C(N)=O [RR9, Arg-Gln-Ile-Arg-Arg-Trp-Trp-Gln-Arg-NH2] (H-RQIRRWWQR-NH2; N-terminus assumed) |  |  | 62.5 (≈ 45.2 µM) | 25 (≈ 18.1 µM) | 50 (≈ 36.1 µM) | 25 (≈ 18.1 µM) | No significant difference | negligible cytotoxicity | 62.5 (≈ 45.2 µM) | 25 (≈ 18.1 µM) | significantly reduced | the bacteria swelled, and some cell membranes were damaged | 24 to 48 | 44 | strong antimicrobial effect | reduced OD value |
